Assay results published in patent US11643385B2, “Polymorphic forms of RAD1901-2HCl” (RADIUS PHARMACEUTICALS, INC., priority 2018, dated 2023).
Marks after values point to notes of the source that are not given here.

Legend:
[1] = Solubility assessment of amorphous RAD1901-2HCl in water/organic solvent mixtures; type: physicochemical; conditions: for XRPD (form) after stirring: after stirring at 25° C. for 72 hours
Description: Samples of amorphous RAD1901-2HCl were prepared in water/organic solvent mixtures containing varying ratios of water. The organic solvents chosen were anhydrous ethanol, methanol and ethyl acetate. The percentage of water in the water/organic solvent mixtures was varied between 0 and 10% (v/v) in order to place a limit on the level of water that can be present during production processes, and to retain formation of Form 1. Above this water activity limit, the hydrated Form 3 will be obtained, as shown by GVS experiments (see FIGS. 6G and 20A). It should be noted that samples prepared in ethyl acetate, were either slurried in anhydrous ethyl acetate, or in water saturated ethyl acetate.
The water activity values for each water/organic solvent mixture are provided in Table 16, and were calculated using the reference given in Bell, Halling, Enzyme Microbiol. Technol. 1997, 20, 471, incorporated herein by reference.

[2] = Storage at elevated temperature/humidity, solid form checked by XRPD; type: physicochemical; conditions: <40% RH, 8 hr
Description: Samples 1 and 2 were characterized by XRPD at various conditions. XRPD patterns were collected for the samples at ambient condition as the samples were provided; at variable temperature (VT-XRPD); at variable humidity (VH-XRPD); after the samples were exposed to 40° C./75% RH for 1 week and 25° C./97% RH for 1 week, respectively; and after a GVS measurement wherein the samples were exposed to 0-90% RH. Samples 1 and 2 were also characterized by ^1H NMR, TGA, DSC, KF, IC, GVS (exposed to 0-90% RH), PLM, SEM, and HPLC (Table 5). […]

| SMILES | Observation After stirring at 25° C. for 72 hours [1] | XRPD (form) after stirring [1] | also measured |
| --- | --- | --- | --- |
| CCNCCc1ccc(CN(CC)c2cc(OC)ccc2[C@@H]2CCc3cc(O)ccc3C2)cc1.Cl.Cl [Form C6.] | Crystals | Form 3* | – |
| CCNCCc1ccc(CN(CC)c2cc(OC)ccc2[C@@H]2CCc3cc(O)ccc3C2)cc1.Cl.Cl [Form C1.] | – | Form 3 | – |
| CCNCCc1ccc(CN(CC)c2cc(OC)ccc2[C@@H]2CCc3cc(O)ccc3C2)cc1.Cl.Cl [Form C10.] | – | Form 3 | Solubility observation at 20 vol. [1]: X (X = suspension); Solubility observation at 30 vol [1]: X (X = suspension) |
| CCNCCc1ccc(CN(CC)c2cc(OC)ccc2[C@@H]2CCc3cc(O)ccc3C2)cc1.Cl.Cl [Form C8.] | Crystals | Form 2 | – |
| CCNCCc1ccc(CN(CC)c2cc(OC)ccc2[C@@H]2CCc3cc(O)ccc3C2)cc1.Cl.Cl [Form C7.] | Crystals | Form 2 | – |
| CCNCCc1ccc(CN(CC)c2cc(OC)ccc2[C@@H]2CCc3cc(O)ccc3C2)cc1.Cl.Cl [Form C5.] | S | – | – |
| CCNCCc1ccc(CN(CC)c2cc(OC)ccc2[C@@H]2CCc3cc(O)ccc3C2)cc1.Cl.Cl [Form C9.] | – | Form 1* | Solubility observation at 20 vol. [1]: X (X = suspension); Solubility observation at 30 vol [1]: X (X = suspension) |
| CCNCCc1ccc(CN(CC)c2cc(OC)ccc2[C@@H]2CCc3cc(O)ccc3C2)cc1.Cl.Cl [amorphous RAD1901-2HCl] | – | – | Form crystallized in anhydrous ethanol ([1]; anhydrous ethanol): Form 1; Form produced by slurrying in anhydrous ethyl acetate ([1]; anhydrous ethyl acetate): Form 1; Form crystallized in anhydrous methanol ([1]; anhydrous methanol): Form 2; Form produced by slurrying in water-saturated ethyl acetate ([1]; water-saturated ethyl acetate, water activity 0.77): Form 3; Ratio of water/ethanol up to which crystals were Form 1 ([1]; water/ethanol): up to 5%; Water activity limit above which hydrate Form 3 results instead of Form 1 ([1]; water/ethanol): 0.39; Ratio of water/methanol up to which crystals were Form 2 ([1]; water/methanol): ≤ 2%; Water activity limit above which hydrate Form 3 results instead of Form 2 ([1]; water/methanol): 0.08 |
| CCNCCc1ccc(CN(CC)c2cc(OC)ccc2[C@@H]2CCc3cc(O)ccc3C2)cc1.Cl.Cl [Form C4.] | – | Form 1 | – |
| CCNCCc1ccc(CN(CC)c2cc(OC)ccc2[C@@H]2CCc3cc(O)ccc3C2)cc1.Cl.Cl [Form 3] | – | – | Form obtained on exposure to <40% RH for 8 hr [2]: Form 2 |
| CCNCCc1ccc(CN(CC)c2cc(OC)ccc2[C@@H]2CCc3cc(O)ccc3C2)cc1.Cl.Cl [Form C3.] | – | Form 1 | – |
| CCNCCc1ccc(CN(CC)c2cc(OC)ccc2[C@@H]2CCc3cc(O)ccc3C2)cc1.Cl.Cl [Form C2.] | – | Form 1 | – |
